In patent publication US8088806B2 (Achillion Pharmaceuticals, Inc., priority 2005, dated 2012):

system: HCV replicon; test: Replicon based assay of HCV replication inhibition (NPT ELISA); type: cell-based, Hepatitis C virus; settings: Hepatitis C virus, replicon based assay of HCV replication inhibition; Table II; read-out: Activity
Procedure, shortened: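 NPT (neomycin phosphotransferase) content, proportional to replicon replication, quantified by capture ELISA on day four. Before that, replicon-bearing Huh-7 cells in G418-free screening medium were exposed three days at 37° C to compound, typically six doses from 10 to 0.03 micromolar, with equal DMSO across wells.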

First: CCCCCCCOc1ccc(Nc2nc(-c3ccc(-c4ccccn4)s3)cs2)cc1 [compound 399, N-(4-(heptyloxy)phenyl)-4-(5-(pyridin-2-yl)thiophen-2-yl)thiazol-2-amine]
Second: CCCCCCCOc1ccc(Nc2nc(-c3nc4ccccc4s3)cs2)cc1 [compound 400, 4-(benzo[d]thiazol-2-yl)-N-(4-(heptyloxy)phenyl)thiazol-2-amine]
The EC50 of the first is lower: < 1000 nM for the first, 1000 to 10000 nM for the second. The first is the more potent here.

Compared with `CCCCCCCOc1ccc(Nc2nc(-c3cc4ccccc4o3)cs2)cc1` [compound 401, 4-(benzofuran-2-yl)-N-(4-(heptyloxy)phenyl)thiazol-2-amine], `CCCCCOc1ccc(Nc2nc(-c3cc4ccccc4o3)cs2)cc1C(F)(F)F` [compound 413, 4-(benzofuran-2-yl)-N-(3-(trifluoromethyl)-4-(pentyloxy)phenyl)thiazol-2-amine] is lower in EC50: 1000 to 10000 nM for the first, < 1000 nM for the second.

`CCCCCCCOc1ccc(Nc2nc(-c3sc(-c4cnccn4)nc3C)cs2)cc1` [compound 402] and `CCCCCOc1ccc(Nc2nc(-c3sc(-c4cnccn4)nc3C)cs2)cc1C(F)(F)F` [compound 414, N-(3-(trifluoromethyl)-4-(pentyloxy)phenyl)-4-(4-methyl-2-(pyrazin-2-yl)thiazol-5-yl)thiazol-2-amine] cannot be ordered by EC50: < 1000 nM for the first, < 1000 nM for the second.

`CCCCCCCOc1ccc(Nc2nc(CC)cs2)cc1` [compound 403, 4-ethyl-N-(4-(heptyloxy)phenyl)thiazol-2-amine] and `CCCCCCCCOc1ccc(Nc2nc(-c3ccncc3)cs2)cc1` [compound 416, N-(4-(octyloxy)phenyl)-4-(pyridin-4-yl)thiazol-2-amine] cannot be ordered by EC50: < 1000 nM for the first, < 1000 nM for the second.

`CCCCCOc1ccc(Nc2nc(-c3ccc(O)c(O)c3)cs2)cc1C(F)(F)F` [compound 404, 4-(2-(3-(trifluoromethyl)-4-(pentyloxy)phenylamino)thia-zol-4-yl)benzene-1,2-diol] and `CCCCCOc1ccc(Nc2nc(-c3cccc(C(=O)O)c3)cs2)cc1C(F)(F)F` [compound 408, 3-(2-(3-(trifluoromethyl)-4-(pentyloxy)phenylamino)thia-zol-4-yl)benzoic acid] cannot be ordered by EC50: < 1000 nM for the first, < 1000 nM for the second.

`CCCCCOc1ccc(Nc2nc(-c3ccc(Cl)s3)cs2)cc1C(F)(F)F` [compound 405] and `CCCCCOc1ccc(Nc2nc(-c3ccc(-c4ccccn4)s3)cs2)cc1C(F)(F)F` [compound 411, N-(3-(trifluoromethyl)-4-(pentyloxy)phenyl)-4-(5-(pyridin-2-yl)thiophen-2-yl)thiazol-2-amine] cannot be ordered by EC50: < 1000 nM for the first, < 1000 nM for the second.

`CCCCCOc1ccc(Nc2nc(-c3ccc(Br)cc3)cs2)cc1C(F)(F)F` [compound 406, 4-(4-bromophenyl)-N-(3-(trifluoromethyl)-4-(pentyloxy)phenyl)thiazol-2-amine] and `CCCCCOc1ccc(Nc2nc(-c3ccccn3)cs2)cc1C(F)(F)F` [compound 409, N-(3-(trifluoromethyl)-4-(pentyloxy)phenyl)-4-(pyridin-2-yl)thiazol-2-amine] cannot be ordered by EC50: < 1000 nM for the first, < 1000 nM for the second.

`CCCCCOc1ccc(Nc2nc(-c3ccc4[nH]c(=O)oc4c3)cs2)cc1C(F)(F)F` [compound 407, 6-(2-(3-(trifluoromethyl)-4-(pentyloxy)phenylamino)thia-zol-4-yl)benzo[d]oxazol-2(3H)-one] and `CCCCCOc1ccc(Nc2nc(-c3c[nH]c4ccccc34)cs2)cc1C(F)(F)F` [compound 410, N-(3-(trifluoromethyl)-4-(pentyloxy)phenyl)-4-(1H-indol-3-yl)thiazol-2-amine] cannot be ordered by EC50: < 1000 nM for the first, < 1000 nM for the second.

`CCCCCOc1ccc(Nc2nc(-c3nc4ccccc4s3)cs2)cc1C(F)(F)F` [compound 412, 4-(benzo[d]thiazol-2-yl)-N-(3-(trifluoromethyl)-4-(pentyloxy)phenyl)thiazol-2-amine] and `CCCCCOc1ccc(Nc2nc(CC)cs2)cc1C(F)(F)F` [compound 415, 4-ethyl-N-(3-(trifluoromethyl)-4-(pentyloxy)phenyl)thiazol-2-amine] cannot be ordered by EC50: < 1000 nM for the first, < 1000 nM for the second.

With `CCCCCOc1ccc(Nc2nc(-c3ccncc3)cs2)cc1F` [compound 417, N-(3-fluoro-4-(pentyloxy)phenyl)-4-(pyridin-4-yl)thiazol-2-amine] the EC50 was 1000 to 10000 nM.
